Measurements from US20170304466A1, “AAV-Based Gene Therapy” (Arthrogen B.V., priority 2014, published 2017).
Read-outs that look alike come from different tables or passages of the source.

How the values were obtained:
healthy mice [1] = assay: Intra-articular rAAV2 luciferase expression, in vivo imaging in healthy mice; details: AAV2-CMV-Fluc 1.26e10 vg/joint, compared with vector alone, up to week 4
Experimental: (§1) In brief, the plasmid encodes the Fluc gene under the control of the CMV promoter and a human growth hormone polyadenylation signal. […] The genome containing vector and empty AAV capsid particles were purified by combined chromatography and cesium chloride density gradient centrifugation. […] Vector titers were determined by qPCR and expressed as vector genomes/ml (vg/ml).
Luciferase expression was measured at different time points after vector administration, from day 3 up till 6 months in different experiments. D-luciferin potassium-salt substrate (Caliper Life Sciences, Hopkinton, Mass., USA) was injected intraperitoneally (150 mg/kg of body weight, in a volume of approximately 200 μl). Photon counts were acquired 10 minutes after substrate administration for 5 minutes using a cooled charge-coupled device (CCD) camera system (Photon Imager, Biospace Lab, Paris, France). […] Image processing and signal intensity quantification and analysis were performed using M3 Vision (Biospace Lab). […] The number of photons emitted per second per square centimetre per steradian was calculated as a measure of luciferase activity.
To test this hypothesis, we performed an experiment were we evaluated if triamcinolone and empty capsid could enhance gene expression from a serotype that is very different from AAV5, that being AAV2. […] Luciferase expression was monitored by live animal IVIS imaging.

[2] = system: macrophages (F4/80+, CD68+); assay: FLOW cytometry of macrophages in spleen and synovium of arthritic mice; format: in vivo; details: 48 hrs after triamcinolone 5 mg/kg i.m.
Experimental: Macrophages in spleen and synovium were analyzed by FLOW cytometry. Briefly, synovial cells were extracted by scraping cells from the joint followed by digestion with Liberase/DNase for 30 min at 37° C. Cells were then washed (PBS/EDTA) and passed through a cell strainer. Synovial cells were centrifuged (1400 rpm, 5 min, 4° C.) and resuspended in FACS buffer (PBS+1% BSA). Due to the low number of cells in the synovium, all animals from each group were pooled. Spleen cells were isolated by mechanical disruption and flushing cells through a cell strainer. Red blood cells were lysed by addition of RBC lysis buffer (Life Technologies), followed by 10 min incubation on ice. Cells were centrifuged and resuspended in FACS buffer. Cells (pooled synovium or splenocytes (1e6 cells) were blocked with 5% normal mouse serum (Sanquin) and stained with F4/80-APC and CD68-FITC labeled antibodies (BD Biosciences). Data was acquired on a BD Canto2 and was analyzed using FlowJo software (FLOWJO LLC, Ashland Oreg.)
To further investigate the mechanism of action behind the effect of triamcinolone on transgene expression, an ex vivo analysis was carried out on synovial tissue and splenocytes to assess the effect on the numbers and activity of macrophages and other cell types. […]

healthy mice [3] = assay: Intra-articular rAAV5 luciferase expression, in vivo imaging in healthy mice; details: AAV5-CMV-Fluc 1.26e10 vg/joint, compared with vector alone, up to week 8
Experimental: as §1
Intra-articular rAAV5 expression was investigated in male DBA mice (8-12 week old; Harlan Sprague Dawley, Horst, The Netherlands) in 5 animal experiments. Mice were injected with rAAV5.CMV.Fluc in both knee joints (with or without injection of ankle joints) and monitored periodically for luciferase expression (from 5 days up till 6 months). […] Empty capsids were co-administered with the genome containing particles in several groups in a 5:1 or 20:1 ratio (ratio expressed as empty capsids to genome containing vectors). […]
(§2) Luciferase expression was measured at different time points after vector administration, from day 3 up till 6 months in different experiments. […] Image processing and signal intensity quantification and analysis were performed using M3 Vision (Biospace Lab). […] The number of photons emitted per second per square centimetre per steradian was calculated as a measure of luciferase activity.

spleen = assay: Spleen size after triamcinolone in arthritic mice; format: in vivo
Experimental: FIG. 5: Effect of triamcinolone on spleen size and cell populations in different tissues. Arthritis was induced in several groups (n=5 per group), triamcinolone (5 mg/kg) or saline as control was administered intramuscularly on day 22 (2 days before vector administration). […]
Immunization, intra-articular injections and in vivo imaging were performed under isoflurane anaesthesia (3% isoflurane and oxygen). At the end of the experiments, animals were sacrificed by cardiac puncture under isoflurane anaesthesia, followed by cervical dislocation, after which hind paws, blood, lymph nodes and spleen were collected. The studies were reviewed and approved by the animal care and use committee of the University of Amsterdam (Amsterdam, The Netherlands; Permit Numbers: ART 102881, ART 102656, ART 102793, ART 102948, and ART 103021) and carried out in strict accordance with the recommendations in the Dutch Law on Animal Welfare (Wet op Dierproeven). Animals were maintained under pathogen-free conditions in the animal facility of the University of Amsterdam.

mice with CIA [4] = format: in vivo
Experimental: In brief, the plasmid encodes the Fluc gene under the control of the CMV promoter and a human growth hormone polyadenylation signal. The transgene cassette is flanked by AAV-2 inverted terminal repeats and is packaged in capsid from AAV5.[Gao G P et al; PNAS 2002; 11854] The genome containing vector and empty AAV capsid particles were purified by combined chromatography and cesium chloride density gradient centrifugation. […] Vector titers were determined by qPCR and expressed as vector genomes/ml (vg/ml).
Intra-articular rAAV5 expression was investigated in male DBA mice (8-12 week old; Harlan Sprague Dawley, Horst, The Netherlands) in 5 animal experiments. Mice were injected with rAAV5.CMV.Fluc in both knee joints (with or without injection of ankle joints) and monitored periodically for luciferase expression (from 5 days up till 6 months). For animals without arthritis the vector was administered on day 1, in arthritic animals the vector was injected on day 17 or 24 after immunization, at the onset of disease. Animals received between 1.26e10 and 1.5e10 vg per knee joint (in a volume of 5 μl) and 0.75e10 vg per ankle joint (in a volume of 2.5 μl). Empty capsids were co-administered with the genome containing particles in several groups in a 5:1 or 20:1 ratio (ratio expressed as empty capsids to genome containing vectors). Groups consisted of 5 to 18 animals.
Two days prior to vector administration, triamcinolone was administered intra-muscularly (i.m.), similar to the use in RA patients. […] Taking into account the faster metabolic rate in mice (factor 12.5), a dose of 5 mg/kg bodyweight was used, administered in a volume of 50 μl. Control groups received an i.m. injection with 50 μl NaCl. […]
as §2
Luminescence over time was investigated using generalized estimating equations (GEE) to allow for longitudinal analysis (including all available longitudinal data and allowing unequal numbers of repeated measurements) (Twisk (2004) Eur. J. Epidemiol. 19(8):769-776). All other statistics were analyzed using Graphpad Prism (Ja Jolla, Calif., USA). […]

mice with CIA [5] = assay: Arthritis activity clinical score in CIA mice; format: in vivo
Experimental: Collagen induced arthritis (CIA) was induced by means of an intradermal injection of 100 μl collagen type II (2 mg/ml), diluted 1:1 in CFA (mineral oil and heat-killed M. Tuberculosis 2 mg/ml) (Chondrex Inc., Redmond, Wash., USA). On day 21 a booster injection was administered intraperitoneally containing 100 μg collagen type II dissolved in 100 μl NaCl.
Arthritis activity was scored 3-weekly from day 18 on with a semi-quantitative scoring system, each mouse paw was analyzed separately (0—normal; 1—swelling and/or erythema of 1 joint; 2—swelling in multiple joints; 3—swelling of all joints; 4—swelling of whole paw and at least one of the following symptoms: ankylosis, loss of function).

air pouch membrane = assay: Luciferase expression in air pouch synovial inflammation (APSI) model; format: in vivo, mice; details: triamcinolone 5 mg/kg i.m. on d9, vector 3.16e11 vg on d11; assay d30
Experimental: Air pouches were formed as previously described (O'Boyle et al. (2009) FASEB J. 23 (11): 3906-3916). Briefly, 3 mls of air was injected subcutaneously into the back of each animal. The air pouches were kept inflated by re-injection of air as necessary. rAAV5.CMV.Fluc vector (3.16e11 vg) was administered into the pouch in a volume of 1 ml on d0, d11, or d18 post air pouch formation. For triamcinolone treated animals, triamcinolone was administered (5 mg/kg) by i.m. injection 2 days prior to vector administration on d11. On d30, mice were sacrificed and air pouch membrane was removed and snap frozen. Frozen air pouch tissue was homogenized in passive lysis buffer (Promega) and luciferase was measured by standard luciferase assay (Promega).
The air pouch synovial inflammation (APSI) model was initially developed as a way to model human synovium in a mouse. It involves the injection of air under the skin on the back of a mouse. After 6-7 days, a lining membrane will form around this air pouch. This lining is very similar to the synovial lining that forms around the joint cavity, consisting primarily of fibroblast like cells and macrophages. […] We hypothesized that perhaps the macrophages lining the air pouch membrane were inhibiting the transduction of the vector (similar to what we have observed in intra-articular injected vector). […]

C[C@]12C=CC(=O)C=C1CC[C@H]1[C@@H]3C[C@@H](O)[C@](O)(C(=O)CO)[C@@]3(C)C[C@H](O)[C@@]12F [triamcinolone]
intra-articular AAV2 gene expression (luciferase, IVIS) (healthy mice [1]): increased gene expression
relative percentage of macrophages (CD68+, F4-80+) in the spleen ([2]; compared with saline): remained similar
percentage of macrophages in the synovium ([2]; pooled animals per group): decreased
intra-articular AAV5 gene expression (luciferase, IVIS) (healthy mice [3]): increased gene expression
spleen weight (spleen; 3 days after triamcinolone/saline administration): significantly reduced
decrease of absolute volume of spleen (spleen; after triamcinolone 5 mg/kg i.m., at d25, p=0.0011): 4 fold
rAAV5.CMV.Fluc expression (luminescence) (mice with CIA [4]; agent given 48 hours before i.a. vector (triamcinolone 5 mg/kg i.m.; liposomal clodronate 5 μl/g i.v.), over 4 weeks): improved rAAV5.CMV.Fluc expression
luciferase expression (generalized estimating equations), compound added separately (mice with CIA [4]; followed 6 months): trend towards increased expression (not significant)
gene expression (luciferase) (mice with CIA [4]; triamcinolone 5 mg/kg locally (i.a.) 2 days prior to i.a. vector + empty capsids 5:1): enhancement of gene expression
gene expression (luciferase) (mice with CIA [4]; triamcinolone 5 mg/kg systemically (i.m.) 2 days prior to i.a. vector + empty capsids 5:1): enhancement of gene expression
arthritis activity (clinical score) (mice with CIA [5]; Example 2, up to 4 weeks): trend towards reduced arthritis activity
arthritis activity (clinical score) (mice with CIA [5]; Example 3, up till week 4): arthritis activity was lower
luciferase expression in air pouch membrane (air pouch membrane): luciferase expression was only observed
